Experimental data: patent US7232912B2, “Indazole compounds, pharmaceutical compositions, and methods for mediating or inhibiting cell proliferation” (Agouron Pharmaceuticals, Inc., priority 2000, dated 2007)

What was measured:
CDK2/cyclin A = target: T1, CDK2/cyclin A (Homo sapiens, UniProt P24941); assay: Inhibition of CDK2/Cyclin A Retinoblastoma Kinase Activity; assay type: biochemical; settings: for Ki: apparent Ki; for inhibition at 10 µM: read-out: CDK2/A % inhibition at 10 μM
T1 construct: made in house; host or cells: CDK2: insect cells (baculovirus); cyclin A: E. coli
Procedure: (§1) Cyclin-dependent kinase activity was measured by quantifying the enzyme-catalyzed, time-dependent incorporation of radioactive phosphate from [^32P]ATP or [^33P]ATP into a protein substrate. Unless noted otherwise, assays were performed in 96-well plates in a total volume of 50 μL, in the presence of 10 mM HEPES (N-[2-hydroxyethyl]piperazine-N′-[2-ethanesulfonic acid]) (pH 7.4), 10 mM MgCl2, 25 μM adenosine triphosphate (ATP), 1 mg/mL ovalbumin, 5 μg/mL leupeptin, 1 mM dithiothreitol, 10 mM beta-glycerophosphate, 0.1 mM sodium vanadate, 1 mM sodium fluoride, 2.5 mM ethylene glycol-bis(β-aminoethyl ethKer)-N,N,N′N′-tetraacetic acid (EGTA), 2% (v/v) dimethylsulfoxide, and 0.03–0.4 μCi [^32/33P]ATP per reaction. Reactions were initiated with appropriate enzyme, incubated at 30° C., and terminated after 20 minutes by the addition of ethylenediaminetetraacetic acid (EDTA) to 250 mM. The phosphorylated substrate was then captured on a nitrocellulose or phosphocellulose membrane using a 96-well filtration manifold, and unincorporated radioactivity was removed by repeated washing with 0.85% phosphoric acid. Radioactivity was quantified by exposing the dried membranes to a phosphorimager.
(§2) Apparent Ki values were measured by assaying enzyme activity in the presence of different inhibitor compound concentrations and subtracting the background radioactivity measured in the absence of enzyme. Inhibition data were fit to an equation for competitive inhibition using Kaleidagraph (Synergy Software), or were fit to an equation for competitive tight-binding inhibition using the software KineTic (BioKin, Ltd.).
Inhibition of CDK2/Cyclin A Retinoblastoma Kinase Activity
CDK2 was purified using published methodology (Rosenblatt et al., “Purification and Crystallization of Human Cyclin-dependent Kinase 2,” J. Mol. Biol., vol. 230, 1993, pp. 1317–1319) from insect cells that had been infected with a baculovirus expression vector. […] A complex of CDK2 and proteolyzed cyclin A was prepared and purified by gel filtration. The substrate for this assay was the same Rb substrate fragment used for the CDK4 assays, and the methodology of the CDK2/cyclin A and the CDK4/cyclin D3 assays was essentially the same, except that CDK2 was present at 150 nM or 5 nM. Ki values were measured as described above.

HCT 116 cell line = assay: Inhibition of Cell Growth (MTT tetrazolium salt assay); assay type: cell-based; settings: Homo sapiens, HCT 116, MTT; for IC50: 50% inhibition of growth, read-out: HCT 116 IC50; for IC90: read-out: HCT 116 IC90
Procedure: Inhibition of Cell Growth: Assessment of Cytotoxicity
Inhibition of cell growth was measured using the tetrazolium salt assay, which is based on the ability of viable cells to reduce 3-(4,5-dimethylthiazol-2-yl)-2,5-[2H]-diphenyltetrazolium bromide (MTT) to formazan (Mossman, Journal of Immunological Methods, vol. 65 (1983), pp. 55–58). The water-insoluble purple formazan product was then detected spectrophotometrically. The HCT 116 cell line was grown in 96-well plates. Cells were plated in the appropriate medium at a volume of 135 μl/well in McCoy's 5A Medium. Plates were incubated for four hours before addition of inhibitor compounds. Different concentrations of inhibitor compounds were added in 0.5% (v/v) dimethylsulfoxide (15 μL/well), and cells were incubated at 37° C. (5% CO2) for four to six days (depending on cell type). At the end of the incubation, MTT was added to a final concentration of 0.2 mg/mL, and cells were incubated for 4 hours more at 37° C. After centrifugation of the plates and removal of medium, the absorbance of the formazan (solubilized in dimethylsulfoxide) was measured at 540 nm. The concentration of inhibitor compound causing 50% inhibition of growth was determined from the linear portion of a semi-log plot of inhibitor concentration versus percentage inhibition. All results were compared to control cells treated only with 0.5% (v/v) dimethylsulfoxide.

CDK4/cyclin D3 = CDK4/cyclin D3 (Homo sapiens, UniProt P11802); assay: Inhibition of CDK4/Cyclin D Retinoblastoma Kinase Activity; assay type: biochemical; settings: for Ki: apparent Ki; for inhibition at 10 µM: read-out: CDK4/D % inhibition at 10 μM
Chain of CDK4/cyclin D3 (P11802 2-303 limits assumed): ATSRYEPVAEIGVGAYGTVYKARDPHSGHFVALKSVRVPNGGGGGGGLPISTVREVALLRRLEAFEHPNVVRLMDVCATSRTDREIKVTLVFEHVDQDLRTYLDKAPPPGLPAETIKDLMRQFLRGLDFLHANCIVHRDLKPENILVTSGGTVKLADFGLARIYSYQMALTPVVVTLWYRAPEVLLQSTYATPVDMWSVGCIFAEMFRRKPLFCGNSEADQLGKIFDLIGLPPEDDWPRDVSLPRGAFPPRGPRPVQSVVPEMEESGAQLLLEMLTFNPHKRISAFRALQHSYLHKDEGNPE
Chain of CDK4/cyclin D3 (P30281 1-264 limits assumed, further chain): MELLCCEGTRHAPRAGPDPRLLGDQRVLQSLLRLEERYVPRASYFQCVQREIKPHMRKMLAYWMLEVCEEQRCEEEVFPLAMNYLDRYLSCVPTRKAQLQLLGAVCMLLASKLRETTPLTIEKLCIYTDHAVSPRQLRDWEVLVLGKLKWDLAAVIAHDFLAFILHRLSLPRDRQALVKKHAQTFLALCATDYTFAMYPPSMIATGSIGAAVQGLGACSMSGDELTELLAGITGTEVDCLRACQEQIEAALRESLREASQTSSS
Procedure: as §1, §2
Inhibition of CDK4/Cyclin D Retinoblastoma Kinase Activity
A complex of human CDK4 and cyclin D3, or a complex of human CDK4 and genetically truncated (1–264) cyclin D3, was purified using traditional biochemical chromatographic techniques from insect cells that had been co-infected with the corresponding baculovirus expression vectors (see e.g., Meijer and Kim, “Chemical Inhibitors of Cyclin-Dependent Kinases,” Methods in Enzymol,. vol. 283 (1997), pp. 113–128.). The enzyme complex (5 or 50 nM) was assayed with 0.3–0.5 μg of purified recombinant retinoblastoma protein fragment (Rb) as a substrate. The engineered Rb fragment (residues 386–928 of the native retinoblastoma protein; 62.3 kDa) contains the majority of the phosphorylation sites found in the native 106-kDa protein, as well as a tag of six histidine residues for ease of purification. Phosphorylated Rb substrate was captured by microfiltration on a nitrocellulose membrane and quantified using a phosphorimager as described above. For measurement of tight-binding inhibitors, the enzyme complex concentration was lowered to 5 nM, and the assay duration was extended to 60 minutes, during which the time-dependence of product formation was linear.

Ki (CDK2/cyclin A)	IC90 (HCT 116 cell line)	Ki (CDK4/cyclin D3)	SMILES	other results
72 nM	5000 nM	83 nM	Cc1c(-c2ccc3[nH]nc(-c4nc5ccccc5[nH]4)c3c2)ccc(CCCO)c1O [Example 26, 3-[3-(1H-Benzoimidazol-2-yl)-1H-indazol-5-yl]-6-(3-hydroxy-propyl)-2-methyl-phenol]	IC50 (HCT 116 cell line): 2800 nM
0.42 nM	500 nM	2.2 nM	C(=N\n1cccc1)/c1n[nH]c2ccc(-c3cncc4ccccc34)cc12 [Example 79, (5-Isoquinolin-4-yl-1H-indazol-3-ylmethylene)-pyrrol-1-yl-amine]	IC50 (HCT 116 cell line): 500 nM
0.3 nM	120 nM	0.09 nM	CNC(C)c1cccc2[nH]c(-c3n[nH]c4ccc(-c5cncc6ccccc56)cc34)nc12 (stereo not shown) [Example 90, {1-[2-(5-Isoquinolin-4-yl-1H-indazol-3-yl)-1H-benzoimidazol-4-yl]-ethyl}-methyl-amine]	IC50 (HCT 116 cell line): 30 nM
	220 nM	14 nM	CCNCc1cncc(-c2ccc3[nH]nc(-c4nc5c(C(=O)NC)cccc5[nH]4)c3c2)c1C [Example 80, 2-[5-(5-Ethylaminomethyl-4-methyl-pyridin-3-yl)-1H-indazol-3-yl]-1H benzoimidazole-4carboxylic acid methylamide]	
2500 nM		2400 nM	c1ccc(-c2n[nH]c3ccc(-c4ccncc4)cc23)cc1 [Example 14, 3-Phenyl-5-(Pyrid-4-yl)-1H-indazole]	
2600 nM			Cc1ccccc1-c1ccc2[nH]nc(-c3ccccc3)c2c1 [Example 11, 5-(2-Methylphenyl)-3-phenyl-1H-indazole]	inhibition at 10 µM (CDK4/cyclin D3): 39%
	> 500 nM	110 nM	CCNCc1cncc(-c2ccc3[nH]nc(-c4nc5c(NC(C)=O)cccc5[nH]4)c3c2)c1C [Example 82, N-2-[5-(5-Ethylaminomethyl-4-methyl-pyridin-3-yl)-1H-indazol-3-yl-1 benzoimidazol-4-yl]-acetamide]	
3300 nM		6600 nM	O=[N+]([O-])c1ccc2[nH]nc(-c3ccc[nH]3)c2c1 [18b′, 5-Nitro-3-(2-Pyrrolyl)-1H-indazole]	
400 nM		1100 nM	Oc1cc(F)cc(F)c1-c1ccc2[nH]nc(-c3nc4ccccc4[nH]3)c2c1 [Example 51]	
		7900 nM	C(=C\c1ccc2[nH]nc(/C=C/c3ccccc3)c2c1)/c1ccccc1 [Example 2, 3,5-Distyryl-1H-Indazole]	
0.38 nM		2.2 nM	c1ccc2c(-c3ccc4[nH]nc(-c5nc6c(Cn7ccnc7)cccc6[nH]5)c4c3)cncc2c1 [Example 40, 4-[3-(4-Imidazol-1-ylmethyl-1H-benzoimidazol-2-yl)-1H-indazol-5-yl]-isoquinoline]	

The next lines start with the compound.

SMILES	Ki (CDK2/cyclin A)	IC90 (HCT 116 cell line)	Ki (CDK4/cyclin D3)	other results
CCNCc1cncc(-c2ccc3[nH]nc(-c4nc5c(SC)cccc5[nH]4)c3c2)c1C [Example 81, Ethyl-4-{methyl-5-[3-(4-methylsulfanyl-1H-benzoimidazol-2-yl)-1H-indazol-5-yl]-pyridin-3-ylmethyl}-amine]	4.9 nM	210 nM	0.8 nM	
Fc1cccc(F)c1-c1ccc2[nH]nc(-c3ccccc3)c2c1 [Example 83, 5-(2,6-Difluorophenyl)-3-Phenyl-1H-indazole]				inhibition at 10 µM (CDK2/cyclin A): 30%; inhibition at 10 µM (CDK4/cyclin D3): 30%
Oc1ccc(-c2ccc3[nH]nc(-c4nc5ccccc5[nH]4)c3c2)cc1 [8′, 4-[3-(1H-Benzoimidazol-2-yl)-1H-indazol-5-yl]-phenol]	370 nM		590 nM	
Cc1c(CN2CCOCC2)cncc1-c1ccc2[nH]nc(-c3nc4ccccc4[nH]3)c2c1 [Example 91, 3-(1H-Benzoimidazol-2-yl)-5-(4-methyl-5-morpholin-4-ylmethyl-pyridin-3-yl)-1H-indazole]	2.8 nM	> 500 nM	7.5 nM	IC50 (HCT 116 cell line): 340 nM
Cc1cnccc1-c1ccc2[nH]nc(/C=C/c3ccccc3)c2c1 [Example 41, 5-(3-Methyl-pyridin-4-yl)-3-(E)-styryl-1H-indazole]	250 nM		78 nM	
Cc1c(O)cncc1-c1ccc2[nH]nc(-c3nc4ccccc4[nH]3)c2c1 [Example 77, 5-[3-(1H-Benzoimidazol-2-yl)-1H-indazol-5-yl]-4-methyl-pyridin-3-ol]	0.38 nM	500 nM	5.8 nM	IC50 (HCT 116 cell line): 310 nM
Cc1c(CNC2CCCC2)cncc1-c1ccc2[nH]nc(-c3nc4ccccc4[nH]3)c2c1 [Example 92, {5-[3-(1H-Benzoimidazol-2-yl)-1H-indazol-5-yl]-4-methyl-pyridin-3-ylmethyl}-cyclopentyl-amine]	2.7 nM	500 nM	7.8 nM	IC50 (HCT 116 cell line): 180 nM
O=[N+]([O-])c1ccc2[nH]nc(-c3ccccc3)c2c1 [Intermediate 11a, 5-Nitro-3-phenyl-1H-indazole]	13000 nM			inhibition at 100 µM (CDK4/cyclin D3; read-out: CDK4/D % inhibition at 100 μM): 48%
Cc1cc(O)ccc1-c1ccc2[nH]nc(-c3ccccc3)c2c1 [Example 13, 5-(4-Hydroxy-2-methylphenyl)-3-phenyl-1H-indazole]	2700 nM		3400 nM	
COc1cccc(-c2ccc3[nH]nc(-c4nc5ccccc5[nH]4)c3c2)c1C [Example 9′, 3-(1H-Benzoimidazol-2-yl)-5-(3-methoxy-2-methyl-phenyl)-1H-indazole]	670 nM		2200 nM	
c1ccc(CNc2ccc3[nH]nc(-c4ccc[nH]4)c3c2)cc1 [Example 85, 5-(Benzylamino)-3-(2-Pyrrolyl)-1H-indazole]	6600 nM		16000 nM	
COc1cccc(-c2ccc3[nH]nc(-c4ccccc4)c3c2)c1 [Example 86, 5-(3-Methoxyphenyl)-3-(phenyl)-1H-indazole]				inhibition at 10 µM (CDK2/cyclin A): 45%; inhibition at 10 µM (CDK4/cyclin D3): 18%
COc1ccc(-c2ccc3[nH]nc(-c4nc5ccccc5[nH]4)c3c2)cc1 [Example 7′, 3-(1H-Benzoimidazol-2-yl)-5-(4-methoxyphenyl)-1H-indazole]	790 nM		1200 nM	
c1ccc(-c2n[nH]c3ccc(-c4cccnc4)cc23)cc1 [Example 14b, 3-Phenyl-5-(pyrid-3-yl)-1H-indazole]				inhibition at 1 µM (CDK4/cyclin D3; read-out: CDK4/D % inhibition at 1 μM): 20%
FC(F)(F)c1ccccc1-c1ccc2[nH]nc(-c3ccccc3)c2c1 [Example 12, 3-Phenyl-5-[2-(trifluormethyl)phenyl]-1H-indazole]	6300 nM			CDK4/D % inhibition at 5 μM (CDK4/cyclin D3; at 5 μM): 19%
c1c[nH]c(-c2n[nH]c3ccc(-c4ccncc4)cc23)c1 [Example 18, 5-(4Pyridyl)-3-(2-Pyrrolyl)-1H-indazole]			960 nM	
